{"source": "ChEMBL document CHEMBL6074620", "about": "“Discovery of a triphenylamine-based ligand that targets mitochondrial DNA G-quadruplexes and activates the cGAS-STING immunomodulatory pathway” (Eur J Med Chem, 2024)", "key": {"Mus musculus [1]": {"system": "Mus musculus", "assay": "In-vivo activation of cGAS-STING signaling pathway in female BALB/c mouse assessed as increase in IFN-beta level at 2.5 mg/kg, sc by ELISA analysis", "type": "functional, organism-based"}, "Mitochondrial membrane": {"system": "Mitochondrial membrane", "assay": "Disruption of mitochondrial membrane potential in mouse 4T1 cells assessed as increase green fluorescence at 0 to 5 uM by JC-1 staining based analysis", "conditions": "dose 0-5 µM"}, "4T1 [2]": {"system": "4T1", "assay": "Activation of cGAS-STING signaling pathway in mouse 4T1 cells assessed as increase in ISG54 level at 5 uM by qPCR analysis", "type": "cell-based", "conditions": "filed as activator"}, "[3]": {"assay": "Toxicity in female BALB/c mouse implanted with mouse 4T1 cells assessed as change in kidney weight at 2.5 mg/kg, sc measured after 21 days by Hematoxylin-Eosin staining based analysis", "type": "organism-based", "conditions": "in vivo, 504 h, time 21 day"}, "[4]": {"assay": "Toxicity in female BALB/c mouse implanted with mouse 4T1 cells assessed as body weight loss at 2.5 mg/kg, sc measured every other day for 21 days", "type": "organism-based", "conditions": "in vivo, 504 h, time 21 day"}, "4T1 [5]": {"system": "4T1", "assay": "Induction of apoptosis in mouse 4T1 cells at 5 uM by Annexin V/PI staining based flow cytometry analysis", "type": "functional, cell-based"}, "4T1 [6]": {"system": "4T1", "assay": "Inhibition of colony formation in mouse 4T1 cells assessed as decrease in number of colonies measured after 10 days of treatment by […]", "type": "functional, cell-based", "conditions": "dose <= 2.0 µM, time 10.0 day"}, "[7]": {"assay": "Drug localization in mitochondria of mouse 4T1 cells assessed as signal colocalization incubated for 30 mins by MitoTracker Green staining based analysis", "type": "ADME", "conditions": "4t1, 0.5 h"}, "[8]": {"assay": "Toxicity in female BALB/c mouse implanted with mouse 4T1 cells assessed as change in body weight at 2.5 mg/kg, iv administered every 3 days for 2 weeks from day 7", "type": "organism-based", "conditions": "in vivo, 336 h"}, "4T1 [9]": {"system": "4T1", "assay": "Induction of apoptosis in mouse 4T1 cells assessed as decrease in PARP level at 5 uM by Western blotting analysis", "type": "functional, cell-based"}, "Mus musculus [10]": {"system": "Mus musculus", "assay": "Immunostimulatory activity in female BALB/c mouse implanted with mouse 4T1 cells assessed as downregulation of M2 macrophages level 2.5 mg/kg, sc by flow cytometry analysis", "type": "functional, organism-based"}, "Quadruplex DNA [11]": {"biological_target": "Quadruplex DNA", "assay": "Binding affinity to 3-terminal mt6363 DNA (unknown origin) assessed as dissociation constant by TAMRA-labeled G4 quenching assay", "type": "nucleic-acid assay"}, "4T1 [12]": {"system": "4T1", "assay": "Activation of cGAS-STING signaling pathway in mouse 4T1 cells assessed as increase in IFN-beta level up to 5 uM by ELISA analysis", "type": "cell-based", "conditions": "filed as activator"}, "4T1 [13]": {"system": "4T1", "assay": "Induction of mitochondrial damage DNA in mouse 4T1 cells assessed as reduction in mtDNA by qPCR analysis", "type": "functional, cell-based"}, "4T1 [14]": {"system": "4T1", "assay": "Activation of cGAS-STING signaling pathway in mouse 4T1 cells assessed as increase in IFN-beta level at 5 uM by qPCR analysis", "type": "cell-based", "conditions": "filed as activator"}, "4T1 [15]": {"system": "4T1", "assay": "Activation of cGAS-STING pathway in mouse 4T1 cells assessed as […] in STING phosphorylation up to 5 uM by Western blot analysis", "type": "cell-based", "conditions": "filed as activator"}, "Mus musculus [16]": {"system": "Mus musculus", "assay": "In-vivo activation of cGAS-STING signaling pathway in female BALB/c mouse assessed as increase in IL-6 level at 2.5 mg/kg, sc by ELISA analysis", "type": "functional, organism-based"}, "[17]": {"assay": "Toxicity in female BALB/c mouse implanted with mouse 4T1 cells assessed as change in lungs weight at 2.5 mg/kg, sc measured after 21 days by Hematoxylin-Eosin staining based analysis", "type": "organism-based", "conditions": "in vivo, 504 h, time 21 day"}, "Mus musculus [18]": {"system": "Mus musculus", "assay": "Immunostimulatory activity in female BALB/c mouse implanted with mouse 4T1 cells assessed as increase in CD8+ T cells in spleen 2.5 mg/kg, iv by flow cytometry", "type": "functional, organism-based"}, "MDA-MB-231": {"system": "MDA-MB-231", "assay": "Cytotoxicity against human MDA-MB-231 cells assessed as reduction in cell viability incubated for 24 hrs by CCK-8 assay", "type": "functional, cell-based", "conditions": "MDA-MB-231, 24 h"}, "4T1 [19]": {"system": "4T1", "assay": "Inhibition of tumor metastasis in mouse 4T1 cells assessed as reduction in wound healing after 24 hrs", "type": "functional, cell-based"}, "Quadruplex DNA [20]": {"system": "Quadruplex DNA", "assay": "Binding affinity to G4-quadruplex mt6363 DNA (unknown origin) at 10 uM by fluorescence based analysis", "type": "nucleic-acid assay"}, "4T1 [21]": {"system": "4T1", "assay": "Activation of cGAS-STING signaling pathway in mouse 4T1 cells assessed as increase in TNF-alpha level at 5 uM by qPCR analysis", "type": "cell-based", "conditions": "filed as activator"}, "4T1 [22]": {"system": "4T1", "assay": "Antitumor activity against mouse 4T1 cells implanted with female BALB/c mouse assessed as decrease tumor volume at 2.5 mg/kg, sc administered for every 3 days for 2 weeks from day 7", "type": "functional, organism-based"}, "4T1 [23]": {"system": "4T1", "assay": "Induction of ROS generation in mouse 4T1 cells assessed as increase green fluorescence by DCFH-DA staining based analysis", "type": "functional, cell-based"}, "Mus musculus [24]": {"system": "Mus musculus", "assay": "Immunostimulatory activity in female BALB/c mouse implanted with mouse 4T1 cells assessed as change in CD4+ T cells in spleen 2.5 mg/kg, sc by flow cytometry", "type": "functional, organism-based"}, "4T1 [25]": {"system": "4T1", "assay": "Induction of ROS generation in mouse 4T1 cells assessed as decrease ROS level at 5 uM in presence of NAC by […] analysis", "type": "functional, cell-based"}, "4T1 [26]": {"system": "4T1", "assay": "Activation of cGAS-STING signaling pathway in mouse 4T1 cells assessed as […] in IRF3 phosphorylation up to 5 uM by Western blot analysis", "type": "cell-based", "conditions": "filed as activator"}, "4T1 [27]": {"system": "4T1", "assay": "Induction of mitochondrial damage in mouse 4T1 cells assessed as decrease in CytB level at 5 uM in presence of NAC by qPCR analysis", "type": "functional, cell-based"}, "4T1 [28]": {"system": "4T1", "assay": "Induction of mitochondrial damage in mouse 4T1 cells assessed as decrease in ND4 level at 5 uM in presence of NAC by qPCR analysis", "type": "functional, cell-based"}, "Mus musculus [29]": {"system": "Mus musculus", "assay": "In-vivo activation of cGAS-STING signaling pathway in female BALB/c mouse assessed as increase in TNF-alpha level at 2.5 mg/kg, sc by ELISA analysis", "type": "functional, organism-based"}, "4T1 [30]": {"system": "4T1", "assay": "Induction of apoptosis in mouse 4T1 cells assessed as decrease in caspase-3 level at 5 uM by Western blotting analysis", "type": "functional, cell-based"}, "4T1 [31]": {"system": "4T1", "assay": "Antitumor activity against mouse 4T1 cells implanted with female BALB/c mouse assessed as effect on caspase-3 level in tumor at 2.5 mg/kg, sc measured for 21 days", "type": "functional, organism-based", "conditions": "time 21.0 day"}, "Quadruplex DNA [32]": {"system": "Quadruplex DNA", "assay": "Stabilization of fluorescently labelled G4-quadruplex mt6363 DNA (unknown origin) assessed as effect on thermal stability of DNA structure by measuring change in melting temperature at 1 uM by FRET melting assay", "type": "nucleic-acid assay"}, "Mus musculus [33]": {"system": "Mus musculus", "assay": "In-vivo activation of cGAS-STING signaling pathway in female BALB/c mouse assessed as TBK1 level in tumor at 2.5 mg/kg, sc by Western blot analysis", "type": "functional, organism-based"}, "4T1 [34]": {"system": "4T1", "assay": "Induction of ROS generation in mouse 4T1 cells assessed as increase 8-OG level in presence of 8-oxoguanine by DAPI staining based immunofluorescence based analysis", "type": "functional, cell-based"}, "4T1 [35]": {"system": "4T1", "assay": "Cytotoxicity against mouse 4T1 cells assessed as reduction in cell viability incubated for 24 hrs by CCK-8 assay", "type": "functional, cell-based", "conditions": "4T1, 24 h"}, "Mus musculus [36]": {"system": "Mus musculus", "assay": "Immunostimulatory activity in female BALB/c mouse implanted with mouse 4T1 cells assessed as tumor infiltrating lymphocytes by measuring increase in CD4+ and CD8+T cells at 2.5 mg/kg, sc by immunohistochemistry analysis", "type": "functional, organism-based"}}, "note": "Activity calls are given as the source filed them. The rule behind the calls is not given here.", "data": [{"smiles": "COc1ccc(N(c2ccc(/C=C/C3=[N+](C)c4ccc5ccccc5c4C3(C)C)cc2)c2ccc(OC)cc2)cc1.[I-]", "values": [{"measurement": "Activity", "setting": "Mus musculus [1]", "result": "Active"}, {"measurement": "Activity", "setting": "Mitochondrial membrane", "result": "Active"}, {"measurement": "Activity", "setting": "4T1 [2]", "result": "Active"}, {"measurement": "Activity", "setting": "[3]", "result": "Non-toxic"}, {"measurement": "Activity", "setting": "[4]", "result": "Non-toxic"}, {"measurement": "Activity", "setting": "4T1 [5]", "result": "Active"}, {"measurement": "Activity", "setting": "4T1 [6]", "result": "Dose-dependent-effect"}, {"measurement": "Drug uptake", "setting": "[7]", "result": "Active"}, {"measurement": "Activity", "setting": "[8]", "result": "Non-toxic"}, {"measurement": "Activity", "setting": "4T1 [9]", "result": "Active"}, {"measurement": "Activity", "setting": "Mus musculus [10]", "result": "Active"}, {"measurement": "Kd", "setting": "Quadruplex DNA [11]", "result": 1900, "unit": "nM"}, {"measurement": "Activity", "setting": "4T1 [12]", "result": "Active"}, {"measurement": "Activity", "setting": "4T1 [13]", "result": "Active"}, {"measurement": "Activity", "setting": "4T1 [14]", "result": "Active"}, {"measurement": "Activity", "setting": "4T1 [15]", "result": "Active"}, {"measurement": "Activity", "setting": "Mus musculus [16]", "result": "Active"}, {"measurement": "Activity", "setting": "[17]", "result": "Non-toxic"}, {"measurement": "Activity", "setting": "Mus musculus [18]", "result": "Active"}, {"measurement": "IC50", "setting": "MDA-MB-231", "result": 1800, "unit": "nM"}, {"measurement": "Activity", "setting": "4T1 [19]", "result": "Active"}, {"measurement": "Activity", "setting": "Quadruplex DNA [20]", "result": "Active"}, {"measurement": "Activity", "setting": "4T1 [21]", "result": "Active"}, {"measurement": "Activity", "setting": "4T1 [22]", "result": "Active"}, {"measurement": "Activity", "setting": "4T1 [23]", "result": "Dose-dependent-effect"}, {"measurement": "Activity", "setting": "Mus musculus [24]", "result": "Active"}, {"measurement": "Activity", "setting": "4T1 [25]", "result": "Active"}, {"measurement": "Activity", "setting": "4T1 [26]", "result": "Active"}, {"measurement": "Activity", "setting": "4T1 [27]", "result": "Active"}, {"measurement": "Activity", "setting": "4T1 [28]", "result": "Active"}, {"measurement": "Activity", "setting": "Mus musculus [29]", "result": "Active"}, {"measurement": "Activity", "setting": "4T1 [30]", "result": "Active"}, {"measurement": "Activity", "setting": "4T1 [31]", "result": "Active"}, {"measurement": "ΔTm", "setting": "Quadruplex DNA [32]", "result": 28.5, "unit": "°C"}, {"measurement": "Activity", "setting": "Mus musculus [33]", "result": "Active"}, {"measurement": "Activity", "setting": "4T1 [34]", "result": "Active"}, {"measurement": "IC50", "setting": "4T1 [35]", "result": 1900, "unit": "nM"}, {"measurement": "Activity", "setting": "Mus musculus [36]", "result": "Active"}]}]}
